Laboratory results from patent US20250255891A1, “PHARMACEUTICAL COMPOSITION INJECTABLE INTO URINARY TRACT ORGAN CAVITY FOR PREVENTION OR TREATMENT OF UROTHELIAL CANCER” (NATIONAL UNIVERSITY CORPORATION KAGAWA UNIVERSITY, priority 2019, published 2025).

Legend:
J82 = test: Cell survival assay (MTT assay), urothelial cancer cell line J82; format: cell-based, human
Experimental: (§1) Three human urothelial cancer cell lines (RT112, 253J, and J82) were used to analyze the antitumor effect of rare sugars. Ten rare sugars of L-allulose, D-allulose, D-allose, L-fructose, D-mannose, L-sorbose, D-tagatose, D-galactose, D-sorbose, and L-tagatose were used, and D-glucose and D-fructose were used as monosaccharides other than the rare sugars. A minimum essential medium (MEM) containing D-glucose at 1,000 mg/l was used as the culture medium, and the antitumor effect of a rare sugar was evaluated in a prepared MEM containing a monosaccharide or a rare sugar at 10 mM, 25 mM, or 50 mM [in the drawings, indicated by (10), (25), or (50)]. An MEM containing no sugar was used for control. With the MEM, cell suspensions each at 5.0×10^4 cells/ml were prepared. Each suspension was distributed in a 96-well plate at 0.1 ml/well and then was incubated for 24 hours. The culture solution was then removed, next a culture solution containing a monosaccharide or a rare sugar at 10 mM, 25 mM, or 50 mM in the MEM was added at 0.1 ml/well, and the whole was incubated for 24 hours (#1 to #13). An MTT assay is a test method for determining survival and uses a color reaction of an insoluble formazan pigment (blue) formed by reduction of MTT as a tetrazolium salt. […] The coloration is measured with a microplate reader to determine the cell survival rate.

RT112 = test: Cell survival assay (MTT assay), urothelial cancer cell line RT112; format: cell-based, human
Experimental: as §1

253J = test: Cell survival assay (MTT assay), urothelial cancer cell line 253J; format: cell-based, human
Experimental: as §1

[1] = Basic safety tests (mutagenicity, biodegradability, acute oral toxicity, primary skin irritation, primary eye irritation); settings: tests ordered to a designated laboratory
Excerpt: The safety of D-allose required for use as a pharmaceutical component is probably sufficient because the rare sugar is a monosaccharide present even in a trace amount in nature. Mutagenicity test, biodegradability test, and three acute toxicity tests (acute oral toxicity test, primary skin irritation test, and primary eye irritation test) are established as the most basic safety tests.

[2] = compared with 11 other monosaccharides/rare sugars at 10-50 mM

## O=C[C@H](O)[C@H](O)[C@H](O)[C@H](O)CO [D-allose]
J82; 10 mM, 25 mM and 50 mM in MEM, 24 hours, p<0.05, FIG. 3
  survival rate as compared with the control: significantly reduced the survival rate
J82; [2]
  antitumor effect relative to the other analyzed sugars: strongest antitumor effect among the analyzed sugars
RT112; 10 mM, 25 mM and 50 mM in MEM, 24 hours, p<0.05, FIG. 1
  survival rate as compared with the control: significantly reduced the survival rate
RT112; [2]
  antitumor effect relative to the other analyzed sugars: strongest antitumor effect among the analyzed sugars
253J; 10 mM, 25 mM and 50 mM in MEM, 24 hours, p<0.05, FIG. 2
  survival rate as compared with the control: significantly reduced the survival rate
253J; [2]
  antitumor effect relative to the other analyzed sugars: strongest antitumor effect among the analyzed sugars
[1]
  result of basic safety tests: sufficient safety
